Laboratory results: patent US20090286787A1, “SUBSTITUTED GAMMA LACTAMS AS THERAPEUTIC AGENTS” (ALLERGAN, INC., priority 2008, published 2009)

Test system: lashes and adjacent hairs of patients
Assay: lash and hair appearance in glaucoma patients treated in only one eye
Type: in vivo, human
Details: unilateral treatment
Text: In the course of treating patients having glaucoma, treatment may only be appropriate in one eye. […] The lash appearance on the lids of the treated eyes would have appeared quite attractive if it represented a bilateral phenomenon. As a result of its asymmetric nature, the long lashes on one side could be construed as disturbing from a cosmetic standpoint. A systemic examination was preformed as a result of the asymmetric phenomenon. It soon became apparent that this altered appearance was not an isolated finding. […] Definite differences could be identified to varying degrees in the lashes and adjacent hairs of all patients who were taking the drug on a unilateral basis for longer than 6 months.
The changes in the lashes were apparent on gross inspection in several patients once attention was focused on the issue. In those with light colored hair and lashes, the differences were only seen easily with the aid of the high magnification and lighting capabilities of the slit lamp biomicroscope. In the course of glaucoma follow-up examination, attention is generally immediately focused on the eye itself. As a result of the high power magnification needed only one eye is seen at a time and the eye is seen at a high enough power that the lashes are not in focus. […]

`CCNC(=O)CCC/C=C\C[C@@H]1[C@@H](/C=C/[C@@H](O)CCc2ccccc2)[C@H](O)C[C@@H]1O` [bimatoprost] was tested, and the “lash growth, treated eye versus non-treated eye” value was “longer, thicker, and fuller in the treated eye than in the non-treated eye”.
